Source: patent publication US20100159496A1, “EVALUATION METHOD FOR PHOTOSYNTHESIS SAMPLE, EVALUATION SYSTEM FOR PHOTOSYNTHESIS SAMPLE, AND EVALUATION PROGRAM FOR PHOTOSYNTHESIS SAMPLE” (HAMAMATSU PHOTONICS K.K., priority 2006, published 2010)

Legend:
Assay type in all cases: cell-based
[1] = tested on: Pseudokircheneriella subcapitata; test: Algae growth inhibition, area under growth curve, P. subcapitata; conditions: 72 hours after exposure, various simazine concentrations (FIG. 13)
Description: In the present embodiment, the area under the growth curve is the area under the growth curve obtained by culturing 6 mL of an P. subcapitata cell suspension, adjusted to have an absorbance at 750 nm of 0.01, under a white fluorescent lamp (50 μmol·m−2·s−1) for 72 hours after chemical substance exposure and measuring, every 24 hours, the cell density as the absorbance at 750 nm.

[2] = tested on: Pseudokircheneriella subcapitata; test: Delayed luminescence of P. subcapitata exposed to simazine, fitted by Formula (1); design: key to Computed value E: E computed by Formula (2) from fitted coefficients ai, bi, ci; conditions: for luminescence amount of delayed luminescence, exposed vs not exposed: 15 minutes after exposure (FIG. 14); for Fitting formula value a1 / Fitting formula value a2 / Fitting formula value a3 / Fitting formula value b1 / Fitting formula value b2 / Fitting formula value b3 / Fitting formula value c1 / Fitting formula value c2 / Fitting formula value c3: 15 minutes after exposure; for Computed value E: Formula (2) from coefficients of Table 2; for Area value (quadrature by parts): third function f3(t), t=0 to 90, Δt 0.1
Description: In the present example, the measurement of delayed luminescence was carried out as follows. 2.5 mL of a P. subcapitata cell suspension, adjusted to have an absorbance at 660 nm of 0.2 in a general, 10×10 mm spectrometric cell, was exposed to simazine of any of various concentrations and left to stand for 15 minutes under a white fluorescent lamp of a light amount of 50 μmol·m−2·s−1. Thereafter, inside the measuring device 10, a red light (660 nm) of approximately 300 μmol·m−2·s−1 was illuminated for 10 seconds from the light source 18 as the excitation light for making delayed luminescence be emitted and then the delayed luminescence emitted after extinguishing of the excitation light was recorded for 50 seconds at 0.1 second intervals.
In the present example, the above-described Formula (1) was used for fitting. As examples for description of the fitting results, the measurement result for the “Not exposed” case is shown in FIG. 15A and a graph of the results of fitting to the measurement data are shown in FIG. 15B. In FIG. 15B, f1(t), f2(t), and f3(t) are respectively the first function, the second function, and the third function in Formula (1). From FIG. 15, it can be understood that the delayed luminescence measurement data can be fitted by a plurality of hill-shaped function.
By the fitting, the function coefficients, ai, bi, and ci (i=1, 2, 3) are determined.
As another example of the evaluating step, a case of evaluating by an evaluation value computed based on a computation formula shall be described. As the evaluation value, an evaluation value E is computed from the determined coefficient values ai, bi, and ci (i=1, 2, 3) and based on Formula (2) described above. Here, the constants mj (j=1 to 9) are set, for example, so that m1=1/a3, m2=1, m3=1, m4=1/a2, m5=1/b2, m6=1/c2, m7=1, m8=1/a1, m9=1/c1. As the constants mj, those that are appropriate according to the measurement conditions and algae species can be set. If instead of using all of the coefficient values, only a portion is to be used as described above, a reciprocal of a coefficient value, such as 1/a3, is set to the corresponding mj (j=1 to 9) for each coefficient value to be ignored.
As another example of the evaluating step, a case of evaluating by an area value computed based on the coefficient values of a function shall be described. As mentioned above, the area value is the value of the area of a region surrounded by the curve indicating the function value in the function graph and the time axis line positioned below the curve indicating the function value. The area value of a function is deeply related to the luminescence amount of the photon component expressed by the function. In the present example, based on the coefficient values obtained from the results of exposing simazine to P. subcapitata shown in Table 2, area values were determined for the third function f3(t) in Formula (1) in a range of t=0 to 90 by quadrature by parts with at interval Δt being set equal to 0.1.

Spirulina platensis = test: Algae growth inhibition, area under growth curve (OECD Test Guideline 201), S. platensis; conditions: 72 hours after exposure, various simazine concentrations (FIG. 9)
Description: The area under the growth curve indicates cell growth, which is a conventional evaluation index of chemical substance impact on algae and is computed in compliance to a method for evaluating the impact of a chemical substance on a general algae (OECD Test Guideline 201). That is, the area under the growth curve is the area under the growth curve obtained by culturing 6 mL of an S. platensis cell suspension, adjusted to have an absorbance at 750 nm of 0.03, under a white fluorescent lamp (50 μmol·m−2·s−1) for 72 hours after chemical substance exposure and measuring, every 24 hours, a cell density as the absorbance at 750 nm.

[3] = simazine exposure concentration 5 μg/L
[4] = simazine exposure concentration 25 μg/L
[5] = simazine exposure concentration 50 μg/L
[6] = simazine exposure concentration 100 μg/L

Structure (SMILES): CCNc1nc(Cl)nc(NCC)n1 [Simazine, simazine]
- cell growth (area under the growth curve) [1]: inhibited according to the exposure concentration of simazine
- variation of evaluation value c3 with simazine exposure concentration ([2]; P. subcapitata (FIG. 16)): decreases in accordance with the simazine exposure concentration
- variation of computed value E with simazine exposure concentration ([2]; P. subcapitata (FIG. 17)): decreases in accordance with the simazine exposure concentration
- variation of area value with simazine exposure concentration ([2]; P. subcapitata (FIG. 18)): decreases in accordance with the simazine exposure concentration
- luminescence amount of delayed luminescence, exposed vs not exposed ([2]; early time period (near 0 seconds) of time after excitation): increases
- luminescence amount of delayed luminescence, exposed vs not exposed ([2]; later time period (5 seconds onward) after excitation): decreases
- Fitting formula value a1 [2, 3]: 0.05
- Fitting formula value a2 [2, 3]: 0.0037
- Fitting formula value a3 [2, 3]: 0.0005
- Fitting formula value b1 [2, 3]: −0.5
- Fitting formula value b2 [2, 3]: −0.5
- Fitting formula value b3 [2, 3]: 6
- Fitting formula value c1 [2, 3]: 5.2
- Fitting formula value c2 [2, 3]: 4.15
- Fitting formula value c3 [2, 3]: 3
- Computed value E [2, 3]: 360
- Area value (quadrature by parts) [2, 3]: 24112.1
- Fitting formula value a1 [2, 4]: 0.05
- Fitting formula value a2 [2, 4]: 0.0035
- Fitting formula value a3 [2, 4]: 0.0004
- Fitting formula value b1 [2, 4]: −0.5
- Fitting formula value b2 [2, 4]: −0.5
- Fitting formula value b3 [2, 4]: 5
- Fitting formula value c1 [2, 4]: 5.2
- Fitting formula value c2 [2, 4]: 4.1
- Fitting formula value c3 [2, 4]: 2.9
- Computed value E [2, 4]: 290
- Area value (quadrature by parts) [2, 4]: 19665.7
- Fitting formula value a1 [2, 5]: 0.08
- Fitting formula value a2 [2, 5]: 0.0044
- Fitting formula value a3 [2, 5]: 0.0005
- Fitting formula value b1 [2, 5]: −0.5
- Fitting formula value b2 [2, 5]: −0.5
- Fitting formula value b3 [2, 5]: 3
- Fitting formula value c1 [2, 5]: 5.4
- Fitting formula value c2 [2, 5]: 4.1
- Fitting formula value c3 [2, 5]: 2.9
- Computed value E [2, 5]: 108.75
- Area value (quadrature by parts) [2, 5]: 16520.1
- Fitting formula value a1 [2, 6]: 0.1
- Fitting formula value a2 [2, 6]: 0.005
- Fitting formula value a3 [2, 6]: 0.005
- Fitting formula value b1 [2, 6]: −0.5
- Fitting formula value b2 [2, 6]: −0.5
- Fitting formula value b3 [2, 6]: 3
- Fitting formula value c1 [2, 6]: 5.6
- Fitting formula value c2 [2, 6]: 4.1
- Fitting formula value c3 [2, 6]: 2.7
- Computed value E [2, 6]: 81
- Area value (quadrature by parts) [2, 6]: 4435.7
- cell growth (area under the growth curve) (Spirulina platensis): inhibited according to the exposure concentration of simazine
